Results on four molecules are retold here after publication PMC7951137 (ACS chemical neuroscience, 2021).

Where two headings read alike, the source gives them in different places.

Assay [1] addresses T1, D189N hMC4R (Homo sapiens, UniProt P32245, D189N). Briefly: cAMP AlphaScreen antagonist assay. Type of assay: cell-based. A general note: Alpha assays give light when donor and acceptor beads are brought close together.
The target of assay [2] is T2, D189Q hMC4R (Homo sapiens, UniProt P32245, D189Q). Briefly: cAMP AlphaScreen antagonist assay. Type of assay: cell-based.
T2 sequence (P32245 whole entry D189Q): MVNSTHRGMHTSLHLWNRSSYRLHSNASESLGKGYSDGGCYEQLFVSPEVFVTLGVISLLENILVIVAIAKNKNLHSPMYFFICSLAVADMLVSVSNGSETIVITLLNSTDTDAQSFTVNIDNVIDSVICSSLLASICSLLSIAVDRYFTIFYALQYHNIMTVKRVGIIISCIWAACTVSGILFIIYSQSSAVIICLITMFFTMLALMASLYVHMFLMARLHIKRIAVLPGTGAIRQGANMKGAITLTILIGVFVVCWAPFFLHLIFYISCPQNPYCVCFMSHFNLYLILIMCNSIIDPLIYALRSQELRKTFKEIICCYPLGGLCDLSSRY
The target in assay [3] is T3, D189A hMC4R (Homo sapiens, UniProt P32245, D189A). Briefly: cAMP AlphaScreen antagonist assay. Type of assay: cell-based.
T3 sequence (P32245 whole entry D189A): as the sequence (P32245 whole entry D189Q) above, with Q189A counted along it
Assay [4] concerns the target T4, D189K hMC4R (Homo sapiens, UniProt P32245, D189K). Briefly: cAMP AlphaScreen antagonist assay. Type of assay: cell-based.
For assay [5], the target named is T5, wildtype hMC4R (Homo sapiens, UniProt P32245). Briefly: cAMP AlphaScreen agonist / inverse agonist assay. Type of assay: cell-based. Conditions: WT hMC4R, basal = signal at 10^−12 M.
T5 sequence (P32245 whole entry): as the sequence (P32245 whole entry D189Q) above, with Q189D counted along it
The target of assay [6] is D189E hMC4R (Homo sapiens, UniProt P32245, D189E). Briefly: cAMP AlphaScreen agonist / inverse agonist assay. The assay is classed as cell-based. Conditions: for Inverse agonist percent decrease from basal activity: D189E hMC4R.
Sequence of D189E hMC4R (P32245 whole entry D189E): as the sequence (P32245 whole entry D189Q) above, with Q189E counted along it
The target in assay [7] is T2, D189Q hMC4R. Put plainly: cAMP AlphaScreen agonist / inverse agonist assay. Type of assay: cell-based. Conditions: for Inverse agonist percent decrease from basal activity: D189Q hMC4R.
Assay [8] has as its target T6, D189S hMC4R (Homo sapiens, UniProt P32245, D189S). Put plainly: cAMP AlphaScreen agonist / inverse agonist assay. Type of assay: cell-based. Conditions: D189S hMC4R.
Assay [9] has as its target T6, D189S hMC4R. Briefly: cAMP AlphaScreen antagonist assay. Type of assay: cell-based. Conditions: Schild analysis, agonist NDP-MSH.
Assay [10] deals with T1, D189N hMC4R. Put plainly: cAMP AlphaScreen agonist / inverse agonist assay. Type of assay: cell-based. Conditions: D189N hMC4R.
Assay [11] deals with T3, D189A hMC4R. Briefly: cAMP AlphaScreen agonist / inverse agonist assay. The assay is classed as cell-based.
For assay [12], the target named is T4, D189K hMC4R. Put plainly: cAMP AlphaScreen agonist / inverse agonist assay. The assay is classed as cell-based.
In assay [13] the target is T4, D189K hMC4R.
The target of assay [14] is T5, wildtype hMC4R. Briefly: cAMP AlphaScreen antagonist assay. The assay is classed as cell-based. Conditions: hMC4R.
Assay [15] has as its system mMC4R. Conditions: cited from earlier work.
Assay [16] deals with T7, human melanocortin-4 receptor (hMC4R), wild type, N-terminal FLAG-tagged (human, UniProt P32245 1-332). Put plainly: cell-based or functional assay.
T7 sequence (P32245 whole entry): as the sequence (P32245 whole entry D189Q) above, with Q189D counted along it
In assay [17] the target is T8, D189E mutant hMC4R, N-terminal FLAG-tagged (human, UniProt P32245 1-332, D189E). Briefly: cell-based or functional assay.
T8 sequence (P32245 whole entry D189E): as the sequence (P32245 whole entry D189Q) above, with Q189E counted along it
The target in assay [18] is T9, D189N mutant hMC4R, N-terminal FLAG-tagged (human, UniProt P32245 1-332, D189N). Put plainly: cell-based or functional assay.
T9 sequence (P32245 whole entry D189N): as the sequence (P32245 whole entry D189Q) above, with Q189N counted along it
In assay [19] the target is T10, D189Q mutant hMC4R, N-terminal FLAG-tagged (human, UniProt P32245 1-332, D189Q). Put plainly: cell-based or functional assay.
T10 sequence (P32245 whole entry D189Q): as the sequence (P32245 whole entry D189Q) above
The target of assay [20] is T11, D189S mutant hMC4R, N-terminal FLAG-tagged (human, UniProt P32245 1-332, D189S). Briefly: cell-based or functional assay.
T11 sequence (P32245 whole entry D189S): as the sequence (P32245 whole entry D189Q) above, with Q189S counted along it
The target in assay [21] is T12, D189A mutant hMC4R, N-terminal FLAG-tagged (human, UniProt P32245 1-332, D189A). Put plainly: cell-based or functional assay.
T12 sequence (P32245 whole entry D189A): as the sequence (P32245 whole entry D189Q) above, with Q189A counted along it
The target in assay [22] is T13, D189K mutant hMC4R, N-terminal FLAG-tagged (human, UniProt P32245 1-332, D189K). Briefly: cell-based or functional assay.
T13 sequence (P32245 whole entry D189K): as the sequence (P32245 whole entry D189Q) above, with Q189K counted along it
Assay [23] has as its target T7, human melanocortin-4 receptor (hMC4R), …. Briefly: radioligand binding.
Assay [24] has the same target. Briefly: radioligand binding. This is another data set of the same source.
Assay [25] addresses T8, D189E mutant hMC4R, N-terminal …. Put plainly: radioligand binding.
In assay [26] the target is T9, D189N mutant hMC4R, N-terminal …. Put plainly: radioligand binding.
Assay [27] addresses T10, D189Q mutant hMC4R, N-terminal …. Put plainly: radioligand binding.
For assay [28], the target named is T11, D189S mutant hMC4R, N-terminal …. Briefly: radioligand binding.
For assay [29], the target named is T12, D189A mutant hMC4R, N-terminal …. Put plainly: radioligand binding.
Assay [30] deals with T13, D189K mutant hMC4R, N-terminal …. Briefly: radioligand binding.

T4 sequence (P32245 whole entry D189K): as the sequence (P32245 whole entry D189Q) above, with Q189K counted along it
T6 sequence (P32245 whole entry D189S): as the sequence (P32245 whole entry D189Q) above, with Q189S counted along it
T1 sequence (P32245 whole entry D189N): as the sequence (P32245 whole entry D189Q) above, with Q189N counted along it

A word on the Kb: it is the equilibrium dissociation constant of an antagonist, usually derived from a functional assay. Read a high Kb as a less potent antagonist. Broadly, the EC50 is the concentration needed to bring the measured effect to its halfway point. Lower therefore signals higher potency in that assay. Take `C[C@@H]1NC(=O)[C@H](CC(=O)O)NC(=O)[C@H](Cc2ccccc2)NC(=O)[C@H](Cc2ccccc2)NC(=O)[C@H](CCCNC(=N)N)NC(=O)[C@@H]2CCCN2C(=O)[C@H]2CCCN2C(=O)[C@H](Cc2ccccc2)NC1=O` [MDE3–119-4c, c[Pro-Arg-Phe-Phe-Asp-Ala-Phe-DPro]]: the Kb in assay [1] was 398 nM; in assay [2], 1580 nM; in assay [3] it was over 3160 nM; in assay [4], over 3160 nM. In addition, in assay [5], the “Inverse agonist percent decrease from basal signal” value is −35%. Moreover, the EC50 in assay [6] turned out to be 3000 nM; in assay [7], 7000 nM. Also, the “Inverse agonist percent decrease from basal activity” value in assay [6] is reported as −40%; in assay [7], −45%; in assay [8], −15%.

Regarding “agouti-related protein (AGRP86–132) [hAGRP(86–132), reference compound]”, the “Antagonist pA2” value in assay [9] is on record as 8.2±0.2. Further, the “Inverse agonist percent decrease from basal signal” value in assay [5] is recorded as 2.4±0.5 (−35%); in assay [5] (listed as AGRP), 35%. For the same molecule, the “Inverse agonist percent decrease from basal activity” value was 4.4±0.1 (−35%) in assay [6], 30±10 (−10%) in [10], 17±5 (−35%) in [7] and 20±10 (−20%) in assay [8]. Also, the Inverse agonist activity entry in [11] and in assay [12] was “no apparent inverse agonist activity” throughout. The “Decreased I125-AGRP binding affinity versus wildtype” value in assay [13] amounted to 10 fold.

Consider “c[Pro-Arg-Phe-Phe-Phe-Ala-Phe-DPro] [MDE3–119-14c]”, for which the “Decrease in antagonist potency relative to MDE3–119-8c” value in [14] is 80 fold. The “Previously decreased antagonist potency (comparator not restated)” value in [15] was 50–100 fold.

As usually defined, the IC50 is the midpoint of a concentration-inhibition curve. Read a high IC50 as weaker potency in that assay. Turning to RCVRLHESCLGQQVPCCDPCATCYCRFFNAFCYCRKLGTAMNPCSRT (domain or fragment, UniProt O00253 86-132, looked up) [human agouti-related protein hAGRP(86–132)], the “pA2, antagonism of NDP-MSH (Schild analysis), cAMP AlphaScreen, HEK293 cells” value came out at 8.8 in assay [16]; 8.8 in [17]; 8.4 in assay [18]; 8.1 in assay [19]; 8.2 in assay [20]; 6.9 in assay [21]. The “pA2, antagonism of NDP-MSH (Schild analysis), cAMP AlphaScreen, HEK293 cells” value in assay [22] stood at 7.2. Also, the IC50 was found to be 12 nM in [23]; 12 nM in [24]; 6 nM in [25]; 10.5 nM in [26]; 10 nM in assay [27]; 12.5 nM in [28]. The IC50 was over 1000 nM in assay [29] and 150 nM in assay [30].
